In patent US11407999B2, “Pharmaceutical composition for preventing or treating angiogenesis relating ocular diseases comprising inhibitors of MCT expression or activity” (Seoul National University R&DB Foundation, priority 2019, dated 2022):

What was measured:
THP-1 macrophages = experiment: VEGF expression/secretion in lactic acid-treated PMA-differentiated THP-1 macrophages (real-time PCR, ELISA); format: cell-based, human
Description: (§1) HUVEC (Human umbilical vein endothelial cell; Lonza Ltd., Basel, Switzerland) was cultured in EGM-2 (endothelial growth medium-2; Lonza). A human acute monocytic leukemia THP-1 cell line was maintained in RPMI medium containing 10% FBS (Gibco). 15 ng/ml PMA (Sigma-Aldrich Corp., St. Louis, Mo., USA) and THP-1 cells were cultured under the conditions of 37° C., 5% CO2 for 2 days, and the THP-1 cells were differentiated into macrophages.
The confluent ARPE-19 monolayer cells maintained in the 24-well plate were incubated with 10 mM L(+)-lactic acid (Sigma-Aldrich Corp.) under presence or absence of α-CHC (α-cyano-4-hydroxycinnamic acid; Sigma-Aldrich) which was an MCT inhibitor (monocarboxylate transporter inhibitor) of 3 mM for a specified period. HUVEC was inoculated to a 24-well plate at a density of 1×10^5/well, and when cells reached 60% to 70% confluence, cells were exposed to 10 mM L(+)-lactic acid under presence or absence of 3 mM α-CHC. The THP-1 cells were inoculated in a 24-well plate at a density of 3)(10^5/well, and they were differentiated into macrophages by PMA treatment, and then were cultured with 20 mM L(+)-lactic acid under presence or absence of 3 mM α-CHC.
In addition, the THP-1 cells were inoculated to a 24-well plate at a density of 3)(10^5/well, and were differentiated into macrophages by PMA treatment, and then were cultured with 20 mM L(+)-lactic acid, by treating SR13800 (Tocris Bioscience, Bristol, UK) at a concentration of 0.5 to 2 μM and AR-C155858 at a concentration of 300 to 500 nM, respectively, thereto.
Cells were treated with lactic acid for 24 hours. The medium was collected and centrifuged at 587 g for 5 minutes and particles were removed and stored at −80° C. before performing ELISA.
(§2) The retina and RPE-choroid tissue were isolated from the control (naive; normal group in which CNV was not induced) CNV mouse (on day 3 after laser irradiation) or diabetic retinopathy mouse (on week 20 after STZ administration), and the isolated tissue was homogenized in ice-cold RIPA lysis buffer (Thermo Scientific, Rockford, Ill., USA) containing 1% protease inhibiting cocktail and 1% phosphatase inhibiting cocktail (GenDEPOT, Katy, Tex., USA). After centrifuging at 15,871 g for 15 minutes, the isolated supernatant was used for ELISA analysis. Secretion of VEGF was measured using ELISA Duoset system (R & D Systems, Minneapolis, Minn., USA) according to the manufacturer's instructions.
(§3) Total RNA was extracted in cells using trizole (Invitrogen, Carlsbad, Calif., USA) according to the manufacturer's instructions. RNA concentration/quality was evaluated using a nanodrop spectrophotometer (NanoDrop Technology, Wilmington, Del., USA). An equal amount of RNA was under reverse transcription to cDNA using a reverse transcription kit (Enzynomics, Daejeon, Korea), and quantitative real-time PCR (ABI PRISM 7900, Applied Biosystems) was performed using SYBR Green PCR Master Mix (Applied Biosystems, Foster City, Calif., USA) to measure gene expression. In 12 minutes at 95° C., a cycle consisting of 10 seconds at 95° C. and 30 seconds at 60° C. was performed 50 times.
Relative mRNA expression of each sample was standardized by β-actin and RPL37A, and statistics were analyzed using Student's unpaired t-test. The sequences of primers used for amplification were disclosed in the following Table 1.

[1] = tested on: diabetic retinopathy-induced mice; experiment: ELISA of VEGF protein in retina and RPE-choroid of STZ diabetic retinopathy-induced mice; format: in vivo, mouse; details: intravitreal 2 μM SR13800 2 μl, FIG. 13
Description: (§4) After administering STZ (streptozotocin, Sigma) to the peritoneal cavity of male C57BL6/J mice aged 7 to 8 weeks, whether high blood glucose was induced was confirmed by measuring blood glucose in 2 days. Mice of which blood glucose was induced to 400 mg/dL or more were selected, and used in the following experiment. From about 10 weeks after administering STZ, diabetic retinopathy began to appear.
(§5) At about day 140 after administrating STZ to the diabetic retinopathy-induced mice, 3 mM a-CHC 2 μl dissolved in PBS, 2 μM SR13800 2 μl dissolved in PBS, or PBS (vehicle) […] was intravitreally injected and it was used in the following experiment.
as §2

[2] = tested on: diabetic retinopathy-induced mice; experiment: IB4 staining of retina of STZ diabetic retinopathy-induced mice (bleeding and angiogenesis); format: in vivo, mouse; details: intraocular (intravitreal) injection, FIG. 14
Description: as §4, §5
Eyes of mice in which diabetes was induced by STZ, prepared by the method of Referential example 3 were extracted and fixed in 4% paraformaldehyde for 1 hour. The anterior segment was removed, and then the retinal tissue was cultured with FITC-conjugated isolectin B4 (Sigma) at 4° C. overnight. After washing with PBS for 10 minutes 10 times using an orbital shaker at a room temperature, the stained tissue was examined under Olympus FV1000 Confocal Scanning Scope.

ARPE-19 = experiment: VEGF expression in lactic acid-treated ARPE-19 retinal pigment epithelium cells; format: cell-based, human; details: ARPE-19, 10 mM lactic acid vs untreated control; FIG. 4a
Description: Human APRE-19 cells were obtained from ATCC (Manassas, Va., USA), and were cultured in DMEM (Dulbecco's modified Eagle's medium)/F12 medium (1:1, USA) supplemented by 10% bovine fetal serum (FBS) (Gibco, Carlsbad, Calif.), 1% penicillin-streptomycin (Gibco) and 2 mM L-glutamine (Gibco) in a wet incubator under the conditions of 37° C., 5% CO2. For ARPE-19 monolayer culture, ARPE-19 cells were inoculated in a 24-well tissue culture plate (1.53105 cells per well; Corning, Corning, N.Y., USA) and were maintained in DMEM/F12 medium in which serum was reduced (1% FBS). Confluent monolayer culture having TER (Transepithelial resistance) of 40 Ωcm2 or more was used in the experiment. […]
as §3, with “In 12 minutes at 95° C., a cycle consisting of 10 seconds at 95° C. and 30 seconds at 60° C. was performed 50 times.” left out

HUVEC [3] = experiment: VEGF expression in lactic acid-treated HUVEC; format: cell-based, human; details: 10 mM lactic acid vs untreated control, FIG. 4b
Description: as §1
The confluent ARPE-19 monolayer cells maintained in the 24-well plate were incubated with 10 mM L(+)-lactic acid (Sigma-Aldrich Corp.) under presence or absence of α-CHC (α-cyano-4-hydroxycinnamic acid; Sigma-Aldrich) which was an MCT inhibitor (monocarboxylate transporter inhibitor) of 3 mM for a specified period. […]
as §3, with “In 12 minutes at 95° C., a cycle consisting of 10 seconds at 95° C. and 30 seconds at 60° C. was performed 50 times.” left out

HUVEC [4] = experiment: Tube formation assay in HUVEC with macrophage conditioned medium; format: cell-based, human; details: for tube formation: FIG. 6a
Description: Matrigel (Corning) with reduced growth factors was thawed at 4° C. overnight. Each well of the 24-well plate cooled in advance was coated with […] and incubated at 37° C. for 40 minutes. HUVEC (3×10^4 cells) was suspended in EGM-2 medium of 100 μl, and aliquoted in a macrophage conditioned medium of 400 μl, and cultured under the condition of 37° C., 5% CO2 for 12 hours. The macrophage conditioned medium means that 20 mM lactic acid is treated for 24 hours by stimulating macrophages (or macrophages pretreated for 1 hour with α-CHC) and the medium was replaced and then the supernatant was collected.
Endothelial cell tube formation was visualized by Calcein AM (Corning) and then imaging was conducted using Leica CTR6000 fluorescence microscope (Wetzlar, Germany). The number of the capillary-like structure was quantified by manual counting of low-power field (×10). For each well, 5 independent fields were evaluated, and the mean branch number per field (magnification, ×10) was measured.

CNV mice [5] = experiment: Flow cytometry for VEGF in macrophages of CNV mice after intravitreal injection; format: in vivo, mouse; details: intravitreal 3 mM α-CHC 2 μl on day 1 after laser, vs vehicle group, FIG. 8a, 8b
Description: (§6) Female C57BL/6J mice aged 7 to 8 weeks were anesthetized by intraperitoneally injecting a mixture of Ketamine 100 mg/kg and Xylazine 10 mg/kg, and by dropping 1% tropicamide (Alcon Laboratories Inc., Fort Worth, Tex., USA) in eyes, the pupils of the mice were expanded. Laser was irradiated in a direction of 3, 6, 9 and 12 o'clock direction of the 2 disc diameter in an optic disc by 831-nm 106 diode laser photocoagulation method (75 μm spot size, 0.1 sec duration time, 120 mW). Bubbling or pop sensing by laser photocoagulation was considered a successful rupture of the Bruch membrane.
(§7) To evaluate the anti-angiogenic effect by blocking lactic acid intake in macrophages, on day 1 after laser irradiation, when the macrophages began to infiltrate the laser irradiation site (image area), 3 mM α-CHC 2 μl or PBS (vehicle) 2 μl dissolved in PBS was intravitreally injected, and it was used in the following experiment.
After laser irradiation, on day 1, 3, 7, 14 and 21, laser-irradiated eyes were extracted. […]
Cells labeled using LSR-II cytometer (BD Biosciences, San Jose, Calif., USA) were analyzed and data were analyzed using FlowJo software (version 7.6.2, Ashland, Oreg., USA).

CNV mice [6] = experiment: Immunohistological staining for F4/80 and VEGF in RPE-choroid of CNV mice; format: in vivo, mouse; details: day 3 after laser irradiation
Description: as §6, §7
Laser was irradiated to mice by the method of Referential example 2, and on day 3, eyes were extracted from mice, and fixed in 4% paraformaldehyde for 1 hour. After removing the retina, the RPE-choroid tissue was cultured with rat anti-mouse F4/80 (Bio-Rad, Richmond, Calif., USA) and APC conjugated anti-mouse VEGF (C-1; Santa Cruz Biotechnology, Inc.) at […] overnight. […] The regions of infiltrated macrophages and secreted VEGF were measured using ImageJ software.

CNV mice [7] = experiment: ELISA of VEGF protein in RPE/choroid and retina of CNV mice; format: in vivo, mouse; details: RPE/choroid tissue of CNV mice, vs vehicle group, FIG. 8e
Description: as §6, with “membrane. […]” for “membrane.”
as §2, with “After centrifuging at 15,871 g for 15 minutes, the isolated supernatant was used for ELISA analysis.” left out

CNV mice [8] = experiment: Quantification of choroidal neovascularization (IB4 staining) in CNV mice; format: in vivo, mouse; details: RPE-choroid tissue of CNV mice, day 7 after laser irradiation; vehicle group 141,472.9±49,186; FIG. 8f, 8g
Description: as §6, with “membrane. […]” for “membrane.”
For evaluation of CNV, on day 1 after laser irradiation, PBS or α-CHC was injected in eyes, and in 6 days (on day 7 after laser irradiation), the RPE-choroid tissue isolated from the eyes of CNV mice was immunohistologically stained with Alexa-Fluor 594-conjugated IB4 (isolectin B4) (Molecular Probes) to visualize CNV. Images obtained by Olympus FV1000 Confocal Scanning Scope were treated in IMARIS imaging software (Bitplane, Zurich, Switzerland) to quantify the IB4-positive CNV amount.

SMILES: Cc1n[nH]c(C)c1Cc1sc2c(c1C(=O)N1C[C@H](O)CO1)c(=O)n(C)c(=O)n2CC(C)C [AR-C155858]
- VEGF expression increased by lactic acid (THP-1 macrophages; THP-1 macrophages, 20 mM lactic acid plus AR-C155858 300 to 500 nM, FIG. 9b): does not show significant changes

SMILES: CC(C)Cc1nn(C)c(=O)c2c(SCCCO)n(Cc3cccc4ccccc34)cc12 [SR13800]
- VEGF secretion (THP-1 macrophages; THP-1 macrophages, 20 mM lactic acid plus SR13800 0.5 to 2 μM vs only lactic acid, dependent on inhibitor concentration, FIG. 9a): reduced
- VEGF expression in the RPE-choroid tissue ([1]; RPE-choroid tissue): did not affect
- VEGF expression increased in the retinal tissue by induction of diabetic retinopathy ([1]; retinal tissue): significantly reduced
- bleeding and angiogenesis increased in the diabetic retinopathy model [2]: significantly reduced

SMILES: CC(O)C(=O)O (stereo not drawn) [lactic acid, L(+)-lactic acid]
- increase of VEGF expression after treatment of lactic acid (THP-1 macrophages; PMA-differentiated THP-1 macrophages, 20 mM lactic acid vs untreated control, FIG. 4c): ≥ 3 times
- increase of VEGF secretion after stimulating with lactic acid (THP-1 macrophages; THP-1 macrophages, 24 hours, FIG. 5): about 5 times
- gene transcriptome and protein expression for VEGF (ARPE-19): did not change significantly
- gene transcriptome and protein expression for VEGF (HUVEC [3]): did not change significantly
- increase of number of branches (HUVEC [4]; HUVEC with supernatant of lactic acid-stimulated macrophages vs lactic acid untreated group, FIG. 6b): about 5 times
- tube formation (HUVEC [4]; HUVEC with supernatant of macrophages stimulated with 20 mM lactic acid): significantly increased

SMILES: N#CC(=Cc1ccc(O)cc1)C(=O)O [α-CHC, α-cyano-4-hydroxycinnamic acid]
- VEGF secretion (VEGF expression) (THP-1 macrophages; THP-1 macrophages, lactic acid plus α-CHC vs only lactic acid, dependent on inhibitor concentration, FIG. 5): reduced
- number of branches (HUVEC [4]; HUVEC with supernatant of macrophages pretreated with α-CHC then lactic acid, vs only lactic acid, FIG. 6b): significantly reduced
- tube formation (HUVEC [4]; HUVEC with supernatant of macrophages pretreated with α-CHC then lactic acid): reduced
- VEGF expression (relative mean fluorescence intensity) (CNV mice [5]): significantly reduced
- VEGF positive region in the F4/80 stained macrophage region (CNV mice [6]; intravitreal injection, vehicle group 523,378±165,071, FIG. 8c, 8d): 383,738±196,716 μm2
- area of infiltrated macrophages (CNV mice [6]; vs vehicle group, FIG. 8d): no significant difference
- amount of VEGF protein increased by CNV induction (CNV mice [7]): significantly reduced
- IB4-positive endothelial cells (CNV amount) (CNV mice [8]): 74,160.6±12,339.5 μm^3
- bleeding and angiogenesis increased in the diabetic retinopathy model [2]: reduced
